Laboratory results from patent US9815796B2 (Merck Sharp & Dohme Corp., priority 2013, dated 2017).
Read-outs that look alike come from different tables or passages of the source.

Columns and labels:
[1] = molecular target: Rhesus PDE2A3 (Macaca mulatta, UniProt B3VTJ2); assay: PDE2 fluorescence polarization (IMAP FP) inhibition assay, rhesus enzyme; assay type: biochemical, rhesus macaque
Method in brief: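 IMAP FP (mP from parallel and perpendicular fluorescence against substrate-only control) was read ≥1 h after adding binding reagent. The preceding 60 min room-temperature reaction contained FAM-cAMP (50 nM) and cGMP (1 uM) in pH 7.2 Tris buffer with MgCl2 and DTT. Enzyme was supernatant of sonicated AD293 cells expressing rhesus PDE2A3; compounds were 3-fold titrated, DMSO 1% final.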

[2] = molecular target: human PDE2A1 (Homo sapiens (Human), UniProt O00408); assay: IMAP FP PDE selectivity panel, human PDE2A1; assay type: biochemical
Method in brief: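 IMAP FP format: substrate 50 nM FAM-cAMP plus 1000 nM cGMP, enzyme (insect-cell GST-tagged human PDE2A1) at ~20% conversion, 60 min reaction at room temperature. Apparent inhibition constants calculated from parallel/perpendicular fluorescence with KM 10,000 nM.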

[3] = Rhesus PDE2, Lab A, read-out: Rhesus PDE2 Ki (nM) - Lab A
[4] = Rhesus PDE2, Lab B, read-out: Rhesus PDE2 Ki (nM) - Lab B
[5] = Human PDE2, Lab B, read-out: Human PDE2 Ki (nM) - Lab B
[6] = Human PDE2, Lab A, read-out: Human PDE2 Ki (nM) - Lab A

Chain of Rhesus PDE2A3 (B3VTJ2 1-941): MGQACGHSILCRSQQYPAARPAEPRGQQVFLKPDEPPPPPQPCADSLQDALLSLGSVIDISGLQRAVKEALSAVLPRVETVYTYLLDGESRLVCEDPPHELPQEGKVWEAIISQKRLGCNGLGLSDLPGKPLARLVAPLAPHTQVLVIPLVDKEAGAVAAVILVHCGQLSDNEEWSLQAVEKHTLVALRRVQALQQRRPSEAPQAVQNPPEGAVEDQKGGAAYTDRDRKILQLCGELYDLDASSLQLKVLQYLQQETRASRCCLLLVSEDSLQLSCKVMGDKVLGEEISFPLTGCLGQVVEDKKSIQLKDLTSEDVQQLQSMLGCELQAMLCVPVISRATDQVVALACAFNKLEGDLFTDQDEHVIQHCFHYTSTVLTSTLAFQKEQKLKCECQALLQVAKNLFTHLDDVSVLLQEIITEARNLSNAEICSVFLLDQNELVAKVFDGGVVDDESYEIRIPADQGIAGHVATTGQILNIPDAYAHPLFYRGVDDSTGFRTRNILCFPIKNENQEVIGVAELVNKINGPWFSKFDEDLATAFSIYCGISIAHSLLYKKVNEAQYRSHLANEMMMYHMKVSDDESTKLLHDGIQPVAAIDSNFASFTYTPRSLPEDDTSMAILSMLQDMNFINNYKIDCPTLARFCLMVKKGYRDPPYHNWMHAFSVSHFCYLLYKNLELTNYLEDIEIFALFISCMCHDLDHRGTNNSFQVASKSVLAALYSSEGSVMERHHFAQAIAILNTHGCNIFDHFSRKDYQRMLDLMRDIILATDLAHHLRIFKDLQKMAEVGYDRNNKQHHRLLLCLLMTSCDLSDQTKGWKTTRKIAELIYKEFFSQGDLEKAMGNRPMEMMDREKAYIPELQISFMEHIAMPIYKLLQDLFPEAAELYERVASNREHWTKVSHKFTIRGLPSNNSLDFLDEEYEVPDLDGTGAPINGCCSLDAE
Chain of human PDE2A1 (O00408 other isoform, or with tags, fused parts or gaps): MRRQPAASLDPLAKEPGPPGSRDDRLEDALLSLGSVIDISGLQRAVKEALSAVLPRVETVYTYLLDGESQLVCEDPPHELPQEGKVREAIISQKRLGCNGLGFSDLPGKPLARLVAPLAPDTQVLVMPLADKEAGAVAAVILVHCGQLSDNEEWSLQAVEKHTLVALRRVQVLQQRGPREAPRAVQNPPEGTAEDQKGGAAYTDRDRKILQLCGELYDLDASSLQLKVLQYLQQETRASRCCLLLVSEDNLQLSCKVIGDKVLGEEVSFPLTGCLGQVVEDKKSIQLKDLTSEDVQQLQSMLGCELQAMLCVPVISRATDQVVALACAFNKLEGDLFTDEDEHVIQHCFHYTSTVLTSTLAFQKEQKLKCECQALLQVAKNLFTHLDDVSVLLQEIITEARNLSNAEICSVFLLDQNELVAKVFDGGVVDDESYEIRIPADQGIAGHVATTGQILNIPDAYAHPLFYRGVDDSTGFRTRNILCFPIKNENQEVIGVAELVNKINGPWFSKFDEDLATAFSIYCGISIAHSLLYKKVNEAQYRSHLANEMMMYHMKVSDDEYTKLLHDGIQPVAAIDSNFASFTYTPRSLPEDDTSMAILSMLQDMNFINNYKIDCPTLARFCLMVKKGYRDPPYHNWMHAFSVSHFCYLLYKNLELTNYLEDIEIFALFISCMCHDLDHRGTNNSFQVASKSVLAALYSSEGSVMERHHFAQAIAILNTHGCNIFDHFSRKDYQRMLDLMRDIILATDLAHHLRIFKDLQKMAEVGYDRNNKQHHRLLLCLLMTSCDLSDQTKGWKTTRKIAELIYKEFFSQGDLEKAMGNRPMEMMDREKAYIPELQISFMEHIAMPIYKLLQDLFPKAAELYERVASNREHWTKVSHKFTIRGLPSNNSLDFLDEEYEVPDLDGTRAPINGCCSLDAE

Row | Compound | Ki [1, 3] [nM] | Ki [1, 4] [nM] | Ki [2, 5] [nM] | Ki [2, 6] [nM]
1 | CC(C)[C@@H](NC(=O)c1cc(=O)[nH]c(-c2ncccn2)n1)c1ccc(S(F)(F)(F)(F)F)cc1 [Example 265, N-{(1R)-2-methyl-1-[4-(pentafluoro-λ^6-sulfanyl)phenyl]propyl}-6-oxo-1,6-dihydro-2,2′-bipyrimidine-4-carboxamide] | 1.2 | 1.6 | 1.5 | 
2 | COc1ccc(Cc2nc(C(=O)N[C@@H](c3ccc(SC(F)(F)F)cc3)C3CC3)cc(=O)[nH]2)cc1F [Example 523, N-[(R)-cyclopropyl{4-[(trifluoromethyl)sulfanyl]phenyl}methyl]-2-(3-fluoro-4-methoxybenzyl)-6-oxo-1,6-dihydropyrimidine-4-carboxamide] |  | 2.8 | 2.1 | 
3 | Cc1nc(C(=O)N[C@@H](c2ccc(SC(F)(F)F)cc2)C(C)C)cc(=O)[nH]1 [Example 30, 2-methyl-N-[(1R)-2-methyl-1-{4-[(trifluoromethyl)sulfanyl]phenyl}propyl]-6-oxo-1,6-dihydropyrimidine-4-carboxamide] | 3.2 |  |  | 2.2
4 | Cc1nc(C(=O)NC(C)c2ccc(C(F)(F)F)cc2Cl)cc(=O)[nH]1 (centres unmarked) [Example 18, N-{1-[2-chloro-4-(trifluoromethyl)phenyl]ethyl}-2-methyl-6-oxo-1,6-dihydropyrimidine-4-carboxamide] | 472 |  |  | 314
5 | CC[C@@H](NC(=O)c1cc(=O)[nH]c(COC)n1)c1ccc(SC(F)(F)F)cc1 [Example 121, 2-(methoxymethyl)-6-oxo-N-[(1R)-1-{4-[(trifluoromethyl)sulfanyl]phenyl}propyl]-1,6-dihydropyrimidine-4-carboxamide] | 25 | 29 |  | ~6.2
6 | CC(C)[C@@H](NC(=O)c1cc(=O)[nH]c(C2CC2)n1)c1ccc(OC(F)(F)F)c(F)c1 [Example 128, 2-cyclopropyl-N-{(1R)-1-[3-fluoro-4-(trifluoromethoxy)phenyl]-2-methylpropyl}-6-oxo-1,6-dihydropyrimidine-4-carboxamide] | 2 |  |  | 1.2
7 | COc1ccc(C(C)(C)c2nc(C(=O)N[C@@H](c3ccc(OC(F)(F)F)c(F)c3)C(C)(C)C)cc(=O)[nH]2)cc1 [Example 487, N-{(1R)-1-[3-fluoro-4-(trifluoromethoxy)phenyl]-2,2-dimethylpropyl}-2-[1-(4-methoxyphenyl)-1-methylethyl]-6-oxo-1,6-dihydropyrimidine-4-carboxamide] |  | 61 | 63 | 
8 | CC[C@@H](NC(=O)c1cc(=O)[nH]c(C)n1)c1ccc(OC(F)(F)F)c(F)c1 [Example 39, N-{(1R)-1-[3-fluoro-4-(trifluoromethoxy)phenyl]propyl}-2-methyl-6-oxo-1,6-dihydropyrimidine-4-carboxamide] | 17 |  |  | 8.8
9 | CC(C)c1nc(C(=O)N[C@H](C)c2ccc(C(F)(F)F)cc2)cc(=O)[nH]1 [Example 137, 2-(1-methylethyl)-6-oxo-N-{(1R)-1-[4-(trifluoromethyl)phenyl]ethyl}-1,6-dihydropyrimidine-4-carboxamide] | 411 |  |  | 231
10 | O=C(NC1(c2ccc(C(F)(F)F)cc2)COC1)c1cc(=O)[nH]c(-c2ccccc2)n1 [Example 402, 6-oxo-2-phenyl-N-{3-[4-(trifluoromethyl)phenyl]oxetan-3-yl}-1,6-dihydropyrimidine-4-carboxamide] |  | 38 | 29 | 
11 | CC(C)(C)[C@@H](NC(=O)c1cc(=O)[nH]c(C2CC2)n1)c1ccc(C(F)(F)F)cc1 [Example 262, 2-cyclopropyl-N-{(1R)-2,2-dimethyl-1-[4-(trifluoromethyl)phenyl]propyl}-6-oxo-1,6-dihydropyrimidine-4-carboxamide] | 0.65 | 0.85 | 0.79 | 
12 | CC1(c2ccc(C(NC(=O)c3cc(=O)[nH]c(-c4ncccn4)n3)C(C)(C)C)cc2F)CC1 (single isomer, unassigned) [Example 717, (R)- or (S)-N-(1-(3-fluoro-4-(1-methylcyclopropyl)phenyl)-2,2-dimethylpropyl)-6-oxo-1,6-dihydro-[2,2′-bipyrimidine]-4-carboxamide] |  | 17 | 14 | 
13 | O=C(N[C@@H](c1ccc(SC(F)(F)F)c(F)c1)C1CC1)c1cc(=O)[nH]c(-c2ncccn2)n1 [Example 452, N-[(R)-cyclopropyl{3-fluoro-4-[(trifluoromethyl)sulfanyl]phenyl}meth-yl]-6-oxo-1,6-dihydro-2,2′-bipyrimidine-4-carboxamide] |  | 9.8 | 9.3 | 
14 | COc1ccc(Cc2nc(C(=O)N[C@@H](c3ccc(OC(F)(F)F)cc3)C(C)(C)C)cc(=O)[nH]2)cc1F [Example 509, N-{(1R)-2,2-dimethyl-1-[4-(trifluoromethoxy)phenyl]propyl}-2-(3-fluoro-4-methoxybenzyl)-6-oxo-1,6-dihydropyrimidine-4-carboxamide] |  | 0.88 | 0.99 | 
15 | CC(C)(NC(=O)c1cc(=O)[nH]c(-c2ncccn2)n1)c1ccc(C(F)(F)F)cc1 [Example 288, N-{1-methyl-1-[4-(trifluoromethyl)phenyl]ethyl}-6-oxo-1,6-dihydro-2,2′-bipyrimidine-4-carboxamide] | 152 |  |  | 123
16 | CC(C)[C@@H](NC(=O)c1cc(=O)[nH]c(-c2ncccn2)n1)c1ccc(C(F)(F)F)cc1 [Example 73, N-{(1R)-2-methyl-1-[4-(trifluoromethyl)phenyl]propyl}-6-oxo-1,6-dihydro-2,2′-bipyrimidine-4-carboxamide] | 4.1 | 4.9 | 5.3 | 
17 | CC[C@@H](NC(=O)c1cc(=O)[nH]c(-c2ccccc2)n1)c1ccc(C(F)(F)F)c(F)c1 [Example 420, N-{(1R)-1-[3-fluoro-4-(trifluoromethyl)phenyl]propyl}-6-oxo-2-phenyl-1,6-dihydropyrimidine-4-carboxamide] |  | 7.3 | 5.9 | 
18 | CC[C@@H](NC(=O)c1cc(=O)[nH]c(-c2ncccn2)n1)c1ccc(C(F)(F)F)c(F)c1 [Example 264, N-{(1R)-1-[3-fluoro-4-(trifluoromethyl)phenyl]propyl}-6-oxo-1,6-dihydro-2,2′-bipyrimidine-4-carboxamide] | 4.6 | 7.9 | 7.7 | 
19 | CC(C)(NC(=O)c1cc(=O)[nH]c(-c2ccccc2)n1)c1ccc(C(F)(F)F)c(F)c1 [Example 158, N-{1-[3-fluoro-4-(trifluoromethyl)phenyl]-1-methylethyl}-6-oxo-2-phenyl-1,6-dihydropyrimidine-4-carboxamide] | 14 |  |  | 9
20 | O=C(N[C@@H](c1ccc(OC(F)F)cc1)C1CC1)c1cc(=O)[nH]c(C2CC2)n1 [Example 446, 2-cyclopropyl-N-{(R)-cyclopropyl[4-(difluoromethoxy)phenyl]methyl}-6-oxo-1,6-dihydropyrimidine-4-carboxamide] |  | 43 | 42 | 
21 | CC[C@@H](NC(=O)c1cc(=O)[nH]c(-c2ccccc2)n1)c1ccc(S(F)(F)(F)(F)F)cc1 [Example 386, 6-oxo-N-{(1R)-1-[4-(pentafluoro-λ^6-sulfanyl)phenyl]propyl}-2-phenyl-1,6-dihydropyrimidine-4-carboxamide] |  | 8.1 | 6.5 | 
22 | Cc1nc(C(=O)N[C@@H](c2ccc(OC(F)F)cc2)C(C)C)cc(=O)[nH]1 [Example 611, N-{(1R)-1-[4-(difluoromethoxy)phenyl]-2-methylpropyl}-2-methyl-6-oxo-1,6-dihydropyrimidine-4-carboxamide] |  | 44 | 37 | 
23 | O=C(NC(c1ccc(F)cc1)c1ccc(C(F)(F)F)cc1)c1cc(=O)[nH]c(-c2ccccc2)n1 (centres unmarked) [Example 367, N-{(4-fluorophenyl)[4-(trifluoromethyl)phenyl]methyl}-6-oxo-2-phenyl-1,6-dihydropyrimidine-4-carboxamide] | 74 | 314 | 262 | 
24 | COc1ccc(Cc2nc(C(=O)N[C@@H](c3ccc(C(F)(F)F)c(F)c3)C(C)C)cc(=O)[nH]2)cc1F [Example 514, 2-(3-fluoro-4-methoxybenzyl)-N-{(1R)-1-[3-fluoro-4-(trifluoromethyl)phenyl]-2-methylpropyl}-6-oxo-1,6-dihydropyrimidine-4-carboxamide] |  | 2.2 | 1.8 | 
25 | Cc1nc(C(=O)N[C@@H](c2ccc(C(F)(F)F)c(F)c2)C2CC2)cc(=O)[nH]1 [Example 68, N-{(R)-cyclopropyl[3-fluoro-4-(trifluoromethyl)phenyl]methyl}-2-methyl-6-oxo-1,6-dihydropyrimidine-4-carboxamide] | 26 |  |  | 17
26 | C[C@@H](NC(=O)c1cc(=O)[nH]c(-c2ccccc2)n1)c1ccc(C(F)(F)F)c(F)c1 [Example 148, N-{(1R)-1-[3-fluoro-4-(trifluoromethyl)phenyl]ethyl}-6-oxo-2-phenyl-1,6-dihydropyrimidine-4-carboxamide] | 5.2 |  |  | 2.6
27 | Cc1nc(C(=O)NC(C)c2ccc3cc[nH]c3c2)cc(=O)[nH]1 (centres unmarked) [Example 303, N-(1-(1H-indol-6-yl)ethyl)-2-methyl-6-oxo-1,6-dihydropyrimidine-4-carboxamide] | 208 |  |  | 215
28 | COc1ccc(Cc2nc(C(=O)N[C@@H](c3ccc(OC(F)(F)F)cc3)C(C)C)cc(=O)[nH]2)cc1 [Example 475, 2-(4-methoxybenzyl)-N-{(1R)-2-methyl-1-[4-(trifluoromethoxy)phenyl]propyl}-6-oxo-1,6-dihydropyrimidine-4-carboxamide] |  | 1.3 | 1.3 | 
